{
  "source": "paper PMC12171880",
  "about": "“Selectivity and Safety Characterization of a Xanthine–Imidazothiazole Lead Structure: a Novel Tryptophan Hydroxylase Inhibitor of Peripheral Serotonin Synthesis” (ACS Pharmacology & Translational Science, 2025)",
  "key": {"human recombinant TPH2": {"target": "T1, human recombinant TPH2 (Homo sapiens, UniProt Q8IWU9)", "T1 construct": "Full-length human TPH1 and TPH2 (UniProt entries P17752 and Q8IWU9); MBP (N); made in house", "T1 sequence (Q8IWU9 1-490)": "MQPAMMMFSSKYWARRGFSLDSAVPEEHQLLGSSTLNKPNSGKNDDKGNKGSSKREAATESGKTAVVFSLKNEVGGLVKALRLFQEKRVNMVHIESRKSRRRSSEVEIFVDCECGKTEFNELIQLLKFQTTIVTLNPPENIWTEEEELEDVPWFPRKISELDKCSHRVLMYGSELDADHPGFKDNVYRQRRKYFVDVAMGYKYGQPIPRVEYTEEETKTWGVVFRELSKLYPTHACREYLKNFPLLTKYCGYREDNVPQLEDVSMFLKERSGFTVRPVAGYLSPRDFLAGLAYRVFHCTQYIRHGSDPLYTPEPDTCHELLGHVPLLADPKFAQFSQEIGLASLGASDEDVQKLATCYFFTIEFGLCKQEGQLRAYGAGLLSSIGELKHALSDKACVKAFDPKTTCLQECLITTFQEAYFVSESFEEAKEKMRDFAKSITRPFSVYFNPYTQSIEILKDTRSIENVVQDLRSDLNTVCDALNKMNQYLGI", "assay": "TPH2 enzymatic activity assay (fluorescence, 96-well)", "format": "biochemical"}, "human recombinant PAH": {"target": "T2, human recombinant PAH (Homo sapiens, UniProt P00439)", "T2 construct": "expression vectors for full-length human PAH (UniProt entry P00439); made in house; host or cells: E. coli T7 Express (NEB) with pRARE2", "T2 sequence (P00439 1-452)": "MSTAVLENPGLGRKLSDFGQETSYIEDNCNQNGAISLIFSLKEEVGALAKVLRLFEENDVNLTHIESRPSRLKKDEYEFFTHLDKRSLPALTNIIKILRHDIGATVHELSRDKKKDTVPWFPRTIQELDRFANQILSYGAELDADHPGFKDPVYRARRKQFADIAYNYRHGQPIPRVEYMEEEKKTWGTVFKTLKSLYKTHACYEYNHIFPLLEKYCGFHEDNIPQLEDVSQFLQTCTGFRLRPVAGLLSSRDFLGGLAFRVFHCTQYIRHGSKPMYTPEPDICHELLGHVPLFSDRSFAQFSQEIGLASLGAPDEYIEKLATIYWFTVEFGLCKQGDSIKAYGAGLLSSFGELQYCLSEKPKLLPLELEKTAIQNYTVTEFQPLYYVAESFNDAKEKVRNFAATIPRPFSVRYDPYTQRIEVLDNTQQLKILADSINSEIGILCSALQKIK", "assay": "PAH enzymatic activity assay (fluorescence, 96-well)", "format": "biochemical"}, "[1]": {"assay": "Toxicokinetic evaluation, plasma exposure in rats (LC-MS)", "format": "in vivo, rat", "details": "for concentration at 30 min: both sexes, Sprague-Dawley, rat, plasma, po", "experimental": "TPT-004 was formulated in 0.5% (w/v) CMC-Na in water and administered by oral gavage (PO) twice daily (b.i.d.) with a 12 h interval to the treatment groups (3 male and 3 female Sprague–Dawley rats each) for 8 days (15 successive applications). Rats were dosed with 10, 45, and 200 mg/kg, i.e., daily doses of 20, 90, and 400 mg/kg. In addition, a control group was dosed at the same frequency as the vehicle (0.5% CMC-Na).\nA blood sample of 100 μL was obtained from each rat by puncturing one of the lateral tail veins under short isoflurane anesthesia. Blood was collected in tubes containing lithium heparin and gently mixed. After centrifugation (10 min at 3000g, 4 °C), plasma was separated and stored at −20 °C until LC-MS analysis. In addition, on day 8, the rats were exsanguinated by cardiac puncture under isoflurane anesthesia. A volume of 100 μL of blood (K3-EDTA) was used for immediate cell blood count, while the rest of the blood was mixed with lithium heparin and centrifuged to generate plasma for clinical chemistry analysis."}, "brain serotonin turnover": {"tested_on": "brain serotonin turnover", "details": "mice, 1.5 mg/kg BID to 100 mg/kg BID; prior pharmacodynamic studies; cited from earlier work"}, "[2]": {"tested_on": "Sugen–Hypoxia rat model of pulmonary arterial hypertension", "details": "previous study; cited from earlier work"}, "[3]": {"details": "calculated from determined IC50 values"}},
  "data": [
    {"compound": "CCn1c(=O)[nH]c(=O)c2c1nc(Cc1cn3cc(C)sc3n1)n2CC1COC1", "note": "[TPT-004]", "values": [
      {"measurement": "Mean TPH2 activity [%]", "setting": "human recombinant TPH2; 3 nM", "result": 100.37, "unit": "%"},
      {"measurement": "IC50", "setting": "human recombinant TPH2; 3 nM to 10 μM, 30 μM L-Trp, 7.5 μM BH4", "result": 21.7, "unit": "nM"},
      {"measurement": "Mean TPH2 activity [%]", "setting": "human recombinant TPH2; 10 nM", "result": 73.97, "unit": "%"},
      {"measurement": "Mean TPH2 activity [%]", "setting": "human recombinant TPH2; 30 nM", "result": 38.03, "unit": "%"},
      {"measurement": "Mean TPH2 activity [%]", "setting": "human recombinant TPH2; 100 nM", "result": 5.40, "unit": "%"},
      {"measurement": "Mean TPH2 activity [%]", "setting": "human recombinant TPH2; 300 nM", "result": 1.60, "unit": "%"},
      {"measurement": "Mean TPH2 activity [%]", "setting": "human recombinant TPH2; 1 μM", "result": 0.69, "unit": "%"},
      {"measurement": "Mean TPH2 activity [%]", "setting": "human recombinant TPH2; 3 μM", "result": 1.07, "unit": "%"},
      {"measurement": "Mean TPH2 activity [%]", "setting": "human recombinant TPH2; 10 μM", "result": 1.24, "unit": "%"},
      {"measurement": "Selectivity ratio TPH2 IC50 : TPH1 IC50", "setting": "human recombinant TPH2; [3]", "result": 0.65},
      {"measurement": "IC50", "setting": "human recombinant TPH2; supplementary CSV", "result": 22, "unit": "nM"},
      {"measurement": "Mean PAH activity [%]", "setting": "human recombinant PAH; 10 nM", "result": 94.75, "unit": "%"},
      {"measurement": "IC50", "setting": "human recombinant PAH; 10 nM to 30 μM, 175 μM L-Phe, 10 μM BH4", "result": 404, "unit": "nM"},
      {"measurement": "Mean PAH activity [%]", "setting": "human recombinant PAH; 30 nM", "result": 91.12, "unit": "%"},
      {"measurement": "Mean PAH activity [%]", "setting": "human recombinant PAH; 100 nM", "result": 82.79, "unit": "%"},
      {"measurement": "Mean PAH activity [%]", "setting": "human recombinant PAH; 300 nM", "result": 58.10, "unit": "%"},
      {"measurement": "Mean PAH activity [%]", "setting": "human recombinant PAH; 1 μM", "result": 25.53, "unit": "%"},
      {"measurement": "Mean PAH activity [%]", "setting": "human recombinant PAH; 3 μM", "result": 9.81, "unit": "%"},
      {"measurement": "Mean PAH activity [%]", "setting": "human recombinant PAH; 10 μM", "result": 4.37, "unit": "%"},
      {"measurement": "Mean PAH activity [%]", "setting": "human recombinant PAH; 30 μM", "result": 2.49, "unit": "%"},
      {"measurement": "Selectivity ratio PAH IC50 : TPH1 IC50", "setting": "human recombinant PAH; [3]", "result": 12.09},
      {"measurement": "IC50", "setting": "human recombinant PAH; supplementary CSV", "result": 404, "unit": "nM"},
      {"measurement": "accumulation in plasma after 15 doses", "setting": "[1]; 10, 45, 200 mg/kg BID, day 1 vs day 8", "result": "absence of an accumulation effect"},
      {"measurement": "concentration at 30 min", "setting": "[1]; 10 mg/kg, day 1, 30 min after the first application, 10 mg/kg PO", "result": "902 ± 247", "unit": "ng/mL"},
      {"measurement": "concentration at 30 min", "setting": "[1]; 10 mg/kg, day 8, 30 min after the 15th application, 10 mg/kg BID PO", "result": "877 ± 210", "unit": "ng/mL"},
      {"measurement": "concentration at 30 min", "setting": "[1]; 45 mg/kg, day 1, 30 min after the first application, 45 mg/kg PO", "result": "4720 ± 2420", "unit": "ng/mL"},
      {"measurement": "concentration at 30 min", "setting": "[1]; 45 mg/kg, day 8, 30 min after the 15th application, 45 mg/kg BID PO", "result": "5040 ± 1790", "unit": "ng/mL"},
      {"measurement": "concentration at 30 min", "setting": "[1]; 200 mg/kg, day 1, 30 min after the first application, 200 mg/kg PO", "result": "18200 ± 6610", "unit": "ng/mL"},
      {"measurement": "concentration at 30 min", "setting": "[1]; 200 mg/kg, day 8, 30 min after the 15th application, 200 mg/kg BID PO", "result": "14400 ± 5600", "unit": "ng/mL"},
      {"measurement": "dose linearity correlation in plasma", "setting": "[1]; day 1", "result": 0.9987},
      {"measurement": "dose linearity correlation in plasma", "setting": "[1]; day 8", "result": 0.9826},
      {"measurement": "balance of brain serotonin turnover", "setting": "brain serotonin turnover", "result": "did not show an altered balance of brain serotonin turnover"},
      {"measurement": "dose needed to achieve the therapeutic effects", "setting": "[2]", "result": 10, "unit": "mg/kg BID"}
    ]}
  ]
}
